Test results: PMC7080406 (eLife, 2020)
Where “and” joins values, the source holds several entries; their conditions need not be identical. Equal values may be shown once. Entries after “also recorded” stand apart in the source; their conditions may differ. Read-outs that look alike come from different tables or passages of the source.

Columns and labels:
MT1 [1] = biological target: T1, MT1 (Homo sapiens, UniProt P48039); test: [3H]melatonin competition radioligand binding, MT1 membranes; details: read-out: MT1 pKi ± SEM (converted)
T1 construct: expressed in transfected cells; host or cells: HEK293T (ATCC CRL-11268), transient transfection
T1 sequence (P48039 whole entry): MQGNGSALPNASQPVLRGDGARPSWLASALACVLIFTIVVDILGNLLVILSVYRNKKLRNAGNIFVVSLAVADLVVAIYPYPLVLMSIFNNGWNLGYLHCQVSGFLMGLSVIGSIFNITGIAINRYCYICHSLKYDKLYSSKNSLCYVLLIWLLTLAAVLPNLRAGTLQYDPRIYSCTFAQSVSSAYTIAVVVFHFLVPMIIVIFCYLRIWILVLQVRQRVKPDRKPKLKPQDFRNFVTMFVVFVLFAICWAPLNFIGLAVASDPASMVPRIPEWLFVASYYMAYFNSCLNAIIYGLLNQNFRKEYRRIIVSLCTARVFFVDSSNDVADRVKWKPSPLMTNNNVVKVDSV
Procedure: (§1) The Radioligand binding assays were conducted by the NIMH Psychoactive Drug Screening Program (PDSP). The NIMH PDSP is directed by Bryan L. Roth, MD, PhD, at the University of North Carolina at Chapel Hill, North Carolina, and Program Officer Jamie Driscoll at NIMH, Bethesda, MD. Binding assay procedures and protocols are also available online at http://pdspdb.unc.edu/pdspWeb/?site=assays. […] Assay plates were sealed and incubated for 4 hr at 37°C in a humidified incubator until harvesting. Plates were harvested using vacuum filtration onto 0.3% polyethyleneimine pre-soaked 96-well Filtermat A (PerkinElmer) and washed three times with cold wash buffer (50 mM Tris, pH 7.4). Filters were dried and melted with a scintillation cocktail (Meltilex, PerkinElmer). Radioactivity was counted using a Wallac TriLux Microbeta counter (PerkinElmer). Results were analyzed using GraphPad Prism 7.0.

MT2 [2] = biological target: T2, MT2 (Homo sapiens, UniProt P49286); test: GloSensor Gi/o-mediated cAMP production inhibition assay, MT2; assay type: cell-based; design: expressed in transfected cells; host or cells: HEK293T (ATCC CRL-11268), transient transfection
T2 sequence (P49286 1-362): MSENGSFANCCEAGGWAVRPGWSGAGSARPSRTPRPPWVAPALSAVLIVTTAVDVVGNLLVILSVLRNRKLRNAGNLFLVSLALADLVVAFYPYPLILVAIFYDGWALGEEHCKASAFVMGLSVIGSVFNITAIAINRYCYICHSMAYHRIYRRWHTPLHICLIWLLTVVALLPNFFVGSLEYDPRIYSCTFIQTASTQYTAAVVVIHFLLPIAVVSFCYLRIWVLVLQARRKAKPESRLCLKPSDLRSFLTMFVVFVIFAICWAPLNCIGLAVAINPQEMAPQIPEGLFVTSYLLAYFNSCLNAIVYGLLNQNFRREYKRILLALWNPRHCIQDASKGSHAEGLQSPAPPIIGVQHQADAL
Procedure: (§2) Briefly, HEK293 T cells (as above) were transiently co-transfected with receptor (MT1 or MT2) and GloSensor cAMP (Promega) plasmids overnight, plated in Poly-L-Lysine coated 384-well white clear bottom plates in DMEM + 1% dialyzed FBS. Cells were used for assays at a minimum of 6 hr after plating. Culture medium was first removed and cells were stimulated with drugs in assay buffer (1x HBSS, 20 mM HEPES, 1 mg/ml BSA, 0.1 mg/ml ascorbic acid, pH 7.4) for 15 min at room temperature (this and all the following steps), followed by addition of a mixture of isoproterenol (final of 100 nM) and luciferin (final of 1 mM) for Gi/o-cAMP production inhibition assays and luciferin (final of 1 mM) for Gs-cAMP production assays. The plates were counted for luminescence after 25 min in a luminescence plate reader. Results were analyzed using GraphPad Prism 7.0.

MT2 [3] = biological target: T2, MT2; test: [3H]melatonin competition radioligand binding, MT2 membranes; design: expressed in transfected cells; host or cells: HEK293T (ATCC CRL-11268), transient transfection; details: read-out: MT2 pKi ± SEM (converted)
Procedure: as §1

MT1 [4] = biological target: T1, MT1; test: GloSensor Gi/o-mediated cAMP production inhibition assay, MT1; assay type: cell-based; details: for EC50: Gi/o mediated
Procedure: as §2

MT2 [5] = biological target: T2, MT2; test: Tango β-arrestin recruitment assay, MT2; assay type: cell-based; design: expressed in transfected cells; transient transfection; details: result in words; compared to G-protein
Procedure: Tango arrestin recruitment assays were carried out according to the previously published procedure [Kroeze et al. (2015)]. In brief, HTLA cells were transiently transfected with receptor TANGO DNA constructs overnight in DMEM with 10% FBS. Transfected cells were then plated into poly-L-Lys coated 384-well plates using DMEM supplemented with 1% dialyzed FBS. After 6 hr incubation, drug dilutions, prepared in DMEM with 1% dFBS, were added for incubation overnight (16–20 hr). Medium and drug solutions were removed, Bright-Glo reagent (20 uL/well) was added for luminescence counting 20 min later. Results were analyzed in GraphPad Prism 7.0.

[6] = system: panel of 47 common drug targets (GPCRs, ion-channels and transporters); test: Binding profiling at a panel of 47 common drug targets; details: final concentration of 10 μM
Procedure: as §1, with “http://pdspdb.unc.edu/pdspWeb/?site=assays. All the radioligand binding assays were performed using membranes prepared from transiently transfected HEK293T cells (purchased from ATCC, CRL-11268, authenticated by the supplier using morphology, growth characteristics, and STR profiling and certified mycoplasma-free) and in standard binding buffer (50 mM Tris, 10 mM MgCl2, 0.1 mM EDTA, 0.1% BSA, 0.01% ascorbic acid, pH 7.4) as recently reported ([Stauch et al., 2019]).” for “http://pdspdb.unc.edu/pdspWeb/?site=assays.”

MT2 [7] = biological target: T2, MT2; test: Bias factor, Gi-cAMP versus Tango (Black and Leff operational model), MT2; assay type: cell-based; design: expressed in transfected cells; host or cells: HEK293T (ATCC CRL-11268), transient transfection; details: G-protein over β-arrestin at MT2; reference melatonin; 10^ΔΔLog(τ/KA)
Procedure: Bias factors were estimated according to the published procedure [Kenakin et al. (2012)] with modifications. Briefly, normalized and pooled results were analyzed by fitting the Black and Leff operational model in Prism 7.0 to obtain Log(τ/KA) values for each pathway (Tango and Gi-cAMP). Within each signaling pathway, a difference of Log(τ/KA), ΔLog(τ/KA), between a test compound and selected reference (melatonin in this case) was calculated. For a testing compound, the difference of ΔLog(τ/KA), ΔΔLog(τ/KA), was then obtained between two pathways. The bias factor is 10^ΔΔLog(τ/KA).

[8] = ligand efficiency (based on EC50)

Ki (MT1 [1]): 490 nM
MT2/MT1 Selectivity (MT2 [2]; Antilog (log(Emax/EC50) MT2 - log (Emax/EC50) MT1), values below 1 = MT1 selectivity): 30 fold and 30.6 fold
EC50 (MT2 [2]; Gi/o mediated, SEM, N = 3, read-out: MT2 pEC50 ± SEM (converted)): 0.363 nM
Emax (MT2 [2]; MT2, activation compared to melatonin, read-out: MT2 Emax ± SEM): 86.1 ± 3.2%
MT2 LE (MT2 [2]; [8]): 0.83 kcal/mol per non-hydrogen atom
Ki (MT2 [3]): 123 nM
EC50 (MT1 [4]; SEM, N = 3, read-out: MT1 pEC50 ± SEM (converted)): 12.3 nM
EC50 (MT1 [4]; read-out: MT1 EC50): 12 nM
MT1 LE (MT1 [4]; [8]): 0.69 kcal/mol per non-hydrogen atom
Emax (MT1 [4]; read-out: MT1 Emax ± SEM): 93.8 ± 2.5%
binding at panel of 47 common drug targets [6]: did not show any substantial binding
bias factor (MT2 [7]): 15.5
Compound: COc1ccnc(N(C)CCNC(C)=O)n1 [Compound 21, N-{2-[(4-methoxypyrimidin-2-yl)(methyl)amino]ethyl}acetamide]
β-arrestin signaling / arrestin recruitment at MT2 (MT2 [5]): dramatically reduced arrestin recruitment; also recorded: marked reduction in β-arrestin signaling compared to G-protein
